# Values of other authors, collected in US20150174235A1, “VACCINE” (Bionor Immuno AS, priority 2012, published 2015).
# System: HIV-specific T-cells
# Details: for IL-2 production by CD8 T-cells / lytic capacity of polyfunctional HIV specific CD8+ T cells / number of polyfunctional CD4+ T-cells / proliferation of CD4+ T cells / Gag antigen epitopes recognized: IMiD present during in vitro T-cell stimulation; for Gag antigen epitopes recognized: also at lower antigen peptide concentrations; for IFN-γ production by CD8+ T-cells and CD4 T-cells: after antigen stimulation, IMiD present
Structure (SMILES),IL-2 production by CD8 T-cells,lytic capacity of polyfunctional HIV specific CD8+ T cells,number of polyfunctional CD4+ T-cells,proliferation of CD4+ T cells,Gag antigen epitopes recognized,IFN-γ production by CD8+ T-cells and CD4 T-cells
Nc1cccc2c1CN(C1CCC(=O)NC1=O)C2=O (stereo not drawn) [Lenalidomide],increased,enhanced,increased,reduced,more,detectable
Nc1cccc2c1C(=O)N(C1CCC(=O)NC1=O)C2=O (stereo not drawn) [pomalidomide],increased,enhanced,increased,reduced,more,detectable
